Several values for one entry are separate records, joined by “and”; a condition that tells them apart may be missing. Equal entries are not always repeated. Where a SMILES comes first, the peptide text is derived from it. The star is where a group is joined. Cbz = O=C(OCc1ccccc1)*
Legend:
[1] = test system: CHOK1 GS-KO cells producing antibody A; test: Cell line construction with MSX plus proteasome inhibitor selection (Example 5), growth and antibody concentration by ELISA / Protein A HPLC; format: cell-based, Chinese hamster
Experimental: The electroporation was performed in the GSKO suspension cell line. A count was performed of the culture in mid exponential phase and the remaining culture centrifuged at 1000 rpm and the supernatant removed. 1×10^7 cells were required per electroporation cuvette in a volume of 700 μl. Therefore, the pellet was resuspended to achieve the concentration of cells for the number of electroporations required. Electroporations were performed with 20 μg linearized plasmid at 300 V, a capacitance of 900 μF and using cuvettes with a 4 mm gap. Each cuvette was added to 20 ml of fresh media with 2 ml of that volume used to rinse out the cuvette. For the cell line construction experiment, then all electroporations were pooled together to give a final volume of 300 ml. This was thoroughly mixed and then distributed in 10 ml volumes between 30×T75 tissue culture flasks. The flasks were then incubated statically at 36.5° C. with 5% CO2. 24 hours after the transfection, the glutamine synthetase inhibitor (MSX) was added to provide selection of the cells successfully taking up the plasmid and expressing the selection marker GS. 5 ml volumes of the MSX stocks with CD-CHO media were added to give either a final culture concentration of either 25, 37.5 or 50 μM MSX. The addition of the proteasome inhibitors was then performed at the appropriate time-point following MSX selection as determined by the design of experiments layout detailed in Table 3. Filter sterilized DMSO was added as a control where no drug was required in the combinations. Cultures were then incubated statically at 36.5° C. and 5% CO2 for approximately two weeks following addition of MSX. […] Once a viable cell concentration of at least 0.2×10^6 cells/ml was achieved, the cultures were moved into 20 ml shake flask cultures at 36.5° C. and 5% CO2 with shaking at 140 rpm. From this point onwards routine sub-culture was performed every 3-4 days.
AffiniPure F(ab′)2 fragment goat anti-human IgG Fc fragment specific (minimal cross-reaction to bovine, horse, mouse serum proteins) (Jackson ImmunoResearch Laboratories Inc) was diluted in coating buffer (15 mM Na2CO3 and 35 mM NaHCO3, pH 9.7) to give a concentration of […]. 100 μl of the stock was then used to coat each well of 96 well plate (Nunc). Plates were covered with foil and stored at 4° C. overnight. […] Plates were again washed and ready-made TMB substrate (Cell signalling technology #7004) was added (100 μl/well). […] The optical density of each well was then measured at 450 nm. The concentration of the supernatant samples were then determined from the standard curve of the known concentrations of IgG. […]

[2] = test system: GS KO Lonza host cells expressing cB72.3 monoclonal antibody; test: Cell line construction with MSX plus proteasome or ERAD inhibitors (Example 6), cB72.3 titre by Octet and western blot; format: cell-based, Chinese hamster; details: for monoclonal antibody titre higher than control pool: 31.25 nM MG-132 and 37.5 μM MSX, 168 h of batch culture; for cell specific productivities compared to MSX control pools: MG-132 particularly 31.25 nM, various concentrations of epoxomicin and eeyarestatin
Experimental: Multiple electroporations with 20 μg of linearized GS cB72.3 monoclonal antibody containing construct with 1×10^7 viable GS KO Lonza host cells were performed and pooled. This pool was then set up into 10 ml cultures, each containing approximately 0.25×10^6 cells and 10 μg DNA, and immediately placed in a static incubator at 37° C. with 5% CO2. Cell media consisted of commercially available CD-CHO media without glutamine and the addition of MSX and inhibitors as outlined below. 24 hours post transfection, MSX was added to the media to make the culture volume up to 15 ml and provide a final MSX concentration of 37.5 μM. The different inhibitors were then added to the pools a further 24 hours after the addition of MSX. A range of concentrations were added for each inhibitor to give the final concentrations in the flasks as described in FIG. 13. Only one inhibitor treatment was performed per flask (no combined treatments) and all were performed in combination with 37.5 μM MSX as outlined in FIG. 13.
The cell pools were then left in the static incubator at 37° C. and 5% CO2 until the viable cell concentration in the flask reached ˜0.2×10^6 cells/ml. When this viable cell number was achieved, cell pools were moved into 125 mL Erlenmeyer shake flasks and cultured in a 20 mL volume of CD-CHO including MSX and the appropriate concentration of inhibitor at 37° C. under a 5% CO2 in air environment with shaking at 140 rpm. 24 out of 33 transfections/pools were eventually moved across to shake flasks as they exceeded the required viable cell concentration described above.
Cell pools were then cultured in the presence of the appropriate inhibitor (and inhibitor concentration and 37.5 μM MSX) in 20 mL of CD-CHO for several passages (each being seeded at 0.2×10^6 viable cells/ml) before batch cultures were set up for each to assess the growth of the pool and to sample for product concentration over the duration of culture. For this purpose 20 ml batch cultures (seeded at 0.2×10^6 viable cells/ml) were sampled at 48, 96 and 168 hours for growth and titre information. The cell pools were also then passaged for an additional two passages in the absence of the inhibitors (but containing MSX) to determine if any changes in growth or productivity were observed, i.e. were the improved culture titres only maintained if the inhibitor was continually present.

GS-KO CHO host cell line = test: Host selection/adaptation in presence of inhibitors, then transient transfection with cB72.3 (Example 8); format: cell-based, Chinese hamster
Experimental: In order to ascertain if adapted/selected host cells with the ability to produce enhanced recombinant protein yields and quality could be generated by culturing the Lonza GS-KO CHO host cell line in the presence of the protein degradation inhibitors, the GS-KO host cell line was cultured in the presence of various protein degradation inhibitors for a series of passages. The host cell line was therefore cultured in 20 ml CD-CHO+6 mM glutamine+the appropriate inhibitors as outlined below in 125 ml Erlenmeyer shake flasks at 37° C. under a 5% CO2 in air environment with shaking at 140 rpm. At each passage the new culture was seeded at 0.2×10^6 viable cells/ml. Cells were passaged when the cell number exceeded 1×10^6 viable cells per mL.
However, cells in the presence of this concentration of MG132 were subjected to 4 passages at this concentration and then a further 2 in the absence of the drug. At this time there was sufficient cells for the transfection following passage of the cells without the drug (2nd experiment of the two) to be undertaken.
Transient transfection of the emerging cell host pools described above was then performed via electroporation with 20 μg of the model cB72.3 plasmid and 1×10^7 viable cells and the cells placed in 20 ml of fresh CD-CHO media plus 6 mM glutamine in 125 ml Erlenmeyer shake flasks and cultured at 37° C. under a 5% CO2 in air environment with shaking at 140 rpm. This was undertaken for the host cell pools that had been in the presence of the inhibitors continually and those that had been passaged for an additional two passages in the absence of the inhibitors. Samples were taken from these batch cultures to monitor growth and antibody titre at 48, 96 and 168 hours post-transfection.

apoptosis = details: cited from earlier work
[3] = test system: recombinant CHO antibody producing cell line (CH0149); test: Initial assessment of inhibitor concentrations on recombinant CHO cell line growth (viable cell number, culture viability, ViCell); format: cell-based, Chinese hamster
Experimental: (§1) 96 deep well plates (Nunc) were seeded at 4×10^6 cells/ml at 300 μl per well for analysis of proteasome and ERAD inhibitors. Triplicate wells were prepared for each inhibitor for each of the panel of cell lines. […] 100 μl of the well volume was combined with 900 μl PBS and a cell count performed using the ViCell apparatus. The remaining 200 μl was centrifuged at 1000 rpm for 5 minutes and the supernatant and pellet stored at −20° C. prior to further analysis.
(§2) Initial assessment was performed across two experiments using one model recombinant CHO antibody producing cell line (CH0149) to determine the appropriate concentrations of each inhibitor to use for the assessment of the full panel (FIGS. 1A-1C and 2A-2F).

[4] = as above; format: cell-based, Chinese hamster; details: Chinese hamster
Experimental: as §1, §2

ER translocation = details: in vivo; cited from earlier work
[5] = immediately after treatment with inhibitors
[6] = two passages in the absence of inhibitors
[7] = host initially cultured with Eeyarestatin I or 6.25 nM Epoxomicin, then 2 passages without inhibitor

Question: Which results are given for `CC(C)C[C@@H](C=O)NC(=O)[C@H](CC(C)C)NC(=O)[C@H](CC(C)C)NC(=O)OCc1ccccc1` [MG-132, Z-Leu-Leu-Leu-al] (Cbz-Leu-Leu-Leu-aldehyde)?
Answer: increase in the amount of antibody in cell culture supernatant over MSX alone pools ([1]; 0.0625 μM MG-132 and 37.5 μM MSX, 192 hours of batch culture): ~4 fold; viable cell counts following electroporation and cell line construction ([1]; concentrations used in Example 2): poor viable cell counts; monoclonal antibody titre higher than control pool ([2]; cells continually cultured with inhibitor): ~4 fold; monoclonal antibody titre higher than control pool ([2]; two passages in the absence of inhibitor): ~4 fold; final inhibitor concentrations that resulted in the emergence of cell pools ([2]; alongside 37.5 μM MSX): 15.625 nM and 31.25 nM; cell specific productivities compared to MSX control pools [2, 5]: enhanced; cell specific productivities compared to MSX control pools [2, 6]: enhanced; host cell growth in presence of inhibitor (GS-KO CHO host cell line; 125 nM, transfection immediately after culture with drug): not sufficient cells; concentration shown to induce apoptosis (apoptosis): 1.5 µM; effect on culture viability and cell numbers ([3]; 0.1 μM): less of an effect; reduction in the culture viability to ([3]; 0.5 and 1 μM, 48 hours after addition): approximately 50%; cell numbers and culture viability ([3]; 5 and 10 μM, 48 hours after addition): dramatically reduced; cytotoxicity at 48 h ([4]; 0.5 and 1 μM, 48 hours after addition, compared to control, read-out: decrease in viable cell number): ~40%; cytotoxicity at 0.5 μM ([4]; read-out: reduction of cell concentration and culture viability compared to control): 30 to 60%

Question: What does the source list for `CC1(C)C(N(O)C(=O)Nc2ccc(Cl)cc2)N(c2ccc(Cl)cc2)C(=O)N1CC(=O)N/N=C/C=C/c1ccc([N+](=O)[O-])o1` (stereo not shown) [eeyarestatin I]?
Answer: cell specific productivities compared to MSX control pools [2, 5]: enhanced; cell specific productivities compared to MSX control pools [2, 6]: enhanced; cell specific productivity and titre (GS-KO CHO host cell line; 0.1 μM in culture media for selection/adaptation of host): increase in cell specific productivity and titre; transient antibody titres versus DMSO control cells (GS-KO CHO host cell line; host cultured with 0.1 μM Eeyarestatin I before transfection): higher transient titres; transient antibody titres versus DMSO control cells (GS-KO CHO host cell line; [7]): higher transient titres; concentration sufficient to block ER translocation (ER translocation): 8 µM; decrease in viable cell number ([3]; 1 μM, 48 hours after addition, two experiments): 15-30%; effect on the culture viability parameters ([3]; 10 μM, two experiments): consistently showed an effect

Question: For `CC[C@H](C)[C@H](NC(=O)[C@H]([C@@H](C)CC)N(C)C(C)=O)C(=O)N[C@H](C(=O)N[C@@H](CC(C)C)C(=O)[C@@]1(C)CO1)[C@@H](C)O` [epoxomicin], which “increase in antibody concentration over control pools generated with MSX alone” value ([1]; 0.025 μM epoxomicin and 37.5 μM MSX, 192 hours of batch culture) is on record?
Answer: 3-7 fold

Question: And the “maximum viable cell number” value ([1]; pool CLC18 constructed with 0.025 μM epoxomicin and 37.5 μM MSX, batch culture without inhibitor)?
Answer: 5.328×10^6 cells/ml

Question: What about the “cell specific productivities compared to MSX control pools” value [2, 5] of the same compound?
Answer: enhanced

Question: And the “cell specific productivities compared to MSX control pools” value [2, 6]?
Answer: enhanced

Question: What about the “transient antibody titres versus DMSO control cells” value (GS-KO CHO host cell line; [7]) of the same compound?
Answer: higher transient titres

Question: And the “decrease in viable cell numbers” value ([3]; 0.05 μM, 48 hours after addition, two experiments)?
Answer: 30-50%

Question: What about the “detrimental effects over time” value ([3]; 0.01, 0.005 and 0.001 μM) of the same compound?
Answer: not showing any detrimental effects until 72 hours

Question: What about the viable cell number ([3]; 0.01, 0.005 and 0.001 μM) of the same compound?
Answer: increase in viable cell number

Question: What about the “decrease in viable cell number” value ([3]; 0.5 and 1 μM, 48 hours after addition, compared to control) of the same compound?
Answer: 90%
